Test results from patent US8946224B2, “Substituted [1,2,4]triazolo[4,3-A]pyrazines for medicaments and pharmaceutical compositions” (Redx Pharma Limited, priority 2010, dated 2015).
≈ marks a conversion by molar mass, not a printed value. Where “and” joins values, the source holds several entries; their conditions need not be identical. Equal values may be shown once. Read-outs that look alike come from different tables or passages of the source. Non-standard residues stand in square brackets, D forms with d. Residues, ends and D or L forms follow the SMILES beside them. Sta = CC(C)C[C@H](N)[C@@H](O)CC(=O)O

Experiments:
plasma triglycerides = assay: Rat plasma triglyceride levels after 3 or 5 days BID treatment; assay type: in vivo; conditions: 25 mg/kg po BID for 3 or 5 days, 16 hours after the last dose
Protocol: The efficacy of particular rosuvastatin compounds was then determined in vivo.
112 male SD rats (Harlan) were housed in groups of 6 under a 12 h light dark cycle (lights on 07.00 h) with free access to food (normal laboratory chow) and water. Animals between 148-183 g were allocated to treatment groups of 8 balanced by body weight and treatments were balanced across cages.
The rosuvastatin analogues were made up in 10% PEG300/10% cremophor/80% methyl cellulose (0.5%) (vehicle 1) to make a 5 mg/mL solution. The rosuvastatin compounds used were:
Rosuvastatin was formulated in 0.5% Tween in 0.5% methyl cellulose (vehicle 2) at 5 mg/kg as a suspension.
Rats were orally dosed with vehicle 1, one of the rosuvastatin analogues in vehicle 1 (25 mg/kg), vehicle 2 or rosuvastatin in vehicle 2 (25 mg/kg po), BID for 3 or 5 days.
Sixteen hours after the last treatment, terminal plasma samples were taken, stored at −20° C., and transported on dry ice for analysis of triglyceride levels.
Data for each time-point were analysed by 1-way ANOVA and post-hoc Dunnett's test.

DPPIV = DPPIV (Homo sapiens, UniProt P27487); assay: DPPIV protease inhibition, substrate Gly-Pro-AMC (Example 97); assay type: biochemical
DPPIV, sequence (P27487 whole entry, species assumed): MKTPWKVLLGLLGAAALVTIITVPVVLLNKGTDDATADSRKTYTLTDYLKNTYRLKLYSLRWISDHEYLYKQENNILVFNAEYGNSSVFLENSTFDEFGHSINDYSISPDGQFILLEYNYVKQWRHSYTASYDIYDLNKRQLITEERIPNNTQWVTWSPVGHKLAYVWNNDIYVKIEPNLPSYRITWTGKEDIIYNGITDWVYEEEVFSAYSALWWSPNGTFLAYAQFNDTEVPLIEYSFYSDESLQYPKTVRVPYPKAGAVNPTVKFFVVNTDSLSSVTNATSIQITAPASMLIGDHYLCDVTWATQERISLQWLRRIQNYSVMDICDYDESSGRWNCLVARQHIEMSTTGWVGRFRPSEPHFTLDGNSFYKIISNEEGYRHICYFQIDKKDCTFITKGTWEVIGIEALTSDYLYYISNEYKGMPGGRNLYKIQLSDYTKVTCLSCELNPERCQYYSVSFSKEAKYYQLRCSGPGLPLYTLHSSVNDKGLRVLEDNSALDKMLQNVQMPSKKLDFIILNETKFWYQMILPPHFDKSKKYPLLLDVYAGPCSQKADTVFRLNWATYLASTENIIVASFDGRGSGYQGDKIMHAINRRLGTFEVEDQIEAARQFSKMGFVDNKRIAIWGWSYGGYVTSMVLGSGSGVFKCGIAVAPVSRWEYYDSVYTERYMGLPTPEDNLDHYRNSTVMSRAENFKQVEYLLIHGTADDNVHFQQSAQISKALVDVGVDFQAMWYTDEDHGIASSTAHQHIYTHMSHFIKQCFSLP
Protocol: (§1) The solutions of the compounds to be tested were prepared in DMSO at a concentration of 10 mM, divided into aliquots and stored at −20° C. The stock solutions were further diluted with assay buffer to make final test solutions. All the final test solutions contained no more than 2.0% DMSO.
(§2) Data were recorded by PHEARstar^PLUS.
(§3) Each assay was repeated for each compound 10 times.

[1] = tested on: PathHunter NHRPro cell lines; assay: PathHunter NHRPro cell assay, agonist format (Examples 90-92); assay type: cell-based; conditions: RARβ, NHR Protein Interaction; for EC50: read-out: RC50 (EC50); for Emax: read-out: Max Response
Protocol: Methodology for Examples 90-92 Cell Handling
PathHunter NHRPro cell lines were expanded from freezer stocks in T25 flasks according to standard procedures and maintained in selective growth media prior to assay.
Once it was established that the cells were healthy and growing normally, cells were passaged from flasks using cell dissociation reagent and seeded into white walled clear bottom 384-well microplates for compound profiling.
For profiling, cells were seeded at a density of 10000 cells per well in a total volume of 20 μL and were allowed to adhere and recover overnight prior to compound addition. Media contained charcoal-dextran filtered serum to reduce the level of hormones present.
Intermediate dilution of compound stocks were generated such that 5 μL of 5× compound could be added to each well with a final DMSO concentration of 1% of total volume.
For profiling compound in agonist mode, the cells were incubated in the presence of compound at 37° C. for 5 hours.
After appropriate compound incubation, assay signal was generated through a single addition of 15 μL (50% v/v) of PathHunter Detection reagent cocktail for agonist and antagonist assays respectively followed by one hour incubation at room temperature.
Microplates were read following signal generation with a PerkinElmer Envision™ instrument for chemiluminescent signal detection.
Dose curves in the presence and absence of compound were plotted using GraphPad Prism or Activity Base.
For the agonist mode, percentage activity was calculated using the following formula: % Activity=100%×(Mean RLU of test sample−mean RLU of vehicle control)/(mean MAX RLU control ligand−mean RLU of vehicle control).

[2] = tested on: anaerobic bacterial strains; assay: microbe, parasite or virus in culture; assay type: cell-based, bacteria; conditions: read-out: MIC (>90%)
[3] = biological target: neuraminidase of oseltamivir-sensitive influenza virus (UniProt P03468); assay type: biochemical
neuraminidase of oseltamivir-sensitive influenza virus, sequence (P03468 whole entry, looked up): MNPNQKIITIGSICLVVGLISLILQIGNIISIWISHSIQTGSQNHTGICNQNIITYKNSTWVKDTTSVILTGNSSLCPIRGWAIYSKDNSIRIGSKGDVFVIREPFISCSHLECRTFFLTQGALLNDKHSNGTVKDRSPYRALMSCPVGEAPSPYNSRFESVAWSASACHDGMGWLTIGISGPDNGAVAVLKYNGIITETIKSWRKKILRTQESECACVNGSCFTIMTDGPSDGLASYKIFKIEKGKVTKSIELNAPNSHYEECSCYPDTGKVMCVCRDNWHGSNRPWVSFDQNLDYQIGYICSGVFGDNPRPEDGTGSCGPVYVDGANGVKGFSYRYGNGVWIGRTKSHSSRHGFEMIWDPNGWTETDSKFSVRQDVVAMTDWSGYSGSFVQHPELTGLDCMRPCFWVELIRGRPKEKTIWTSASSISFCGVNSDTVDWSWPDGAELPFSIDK

HepG2 cells = assay: HepG2 cytotoxicity, MTT, 72 hours (Examples 93-95); assay type: cell-based; conditions: Cell Loss, Example 94, dosed 0.02-50 μM
Protocol: Methodology for Examples 93-95
A number of analogues were tested for their ability to kill cancer cells.
HepG2 cells were plated on 96-well tissue culture treated polystyrene plates at 0.5×10^4 cells in 100 μL per well. After 24 hr the cells are dosed with test compound at a range of concentrations and incubated for 72 hours. One hour prior to the end of the incubation period, the cells are loaded with MU [yellow; 3-(4,5-dimethyl-2-thiazolyl)-2,5-diphenyl-2H-tetrazolium bromide], the plates are dried and re-solubilised using DMSO. The plates are then scanned using SpectraFluor Plus (TECAN).
Cytotoxicity was assessed using MU. The assay provides a measurement of mitochondrial dehydrogenase activity and cell loss.
A decrease can indicate a loss of cells indicating toxicity due to necrosis, apoptosis or a reduction in cellular proliferation.
A decrease can also indicate an effect on mitochondrial function as mitochondrial dehydrogenasesreduce the MTT [yellow; 3-(4,5-dimethyl-2-thiazolyl)-2,5-diphenyl-2H-tetrazolium bromide] to formazan. The formazan is detected in this assay.
The cells were dosed at concentrations of 0.04, 0.1, 0.4, 1, 4, 10, 40 and 100 μM. The assay was repeated three times at each concentration.
AC50=The concentration at which 50% maximum effect is observed for each cell health parameter.
The cells were dosed at concentrations of 0.02, 0.05, 0.2, 0.5, 2, 5, 20 and 50 μM. The assay was repeated three times at each concentration.
The cells were dosed at concentrations of 0.04, 0.1, 0.4, 1, 4, 10, 40 and 100 μM for bexarotene and the compound of formula 102 when Z is CH═NOH (compound 13a). The cells were dosed at concentrations of 0.02, 0.05, 0.2, 0.5, 2, 5, 20 and 50 μM for the compound of formula 102 when Z is CH═NOMe (compound 13b). The assay was repeated three times at each concentration.

renin = biological target: T1, renin (Homo sapiens, UniProt P00797); assay: Renin inhibition (Comparative Example 98); assay type: biochemical
T1 sequence (P00797 67-406): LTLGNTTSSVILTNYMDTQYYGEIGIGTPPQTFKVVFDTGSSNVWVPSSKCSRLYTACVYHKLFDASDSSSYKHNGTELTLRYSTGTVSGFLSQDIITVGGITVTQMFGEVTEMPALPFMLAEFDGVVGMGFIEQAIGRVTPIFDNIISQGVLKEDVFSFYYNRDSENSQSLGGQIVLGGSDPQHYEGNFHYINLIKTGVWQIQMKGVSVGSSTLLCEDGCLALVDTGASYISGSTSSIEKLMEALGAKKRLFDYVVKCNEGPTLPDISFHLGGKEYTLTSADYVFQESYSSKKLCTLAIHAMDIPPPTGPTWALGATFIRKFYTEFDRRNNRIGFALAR
Protocol: as §1, §2, §3

[4] = tested on: PathHunter NHRPro cell lines; assay: PathHunter NHRPro cell assay, agonist format (Examples 90-92); assay type: cell-based; conditions: for EC50: read-out: RC50 (EC50)
[5] = Bacteroides fragilis, ATCC25293, 48 h
[6] = Prevotella melaninogenica, ATCC25845, 48 h

With `COC1C[C@H](OC(=O)c2cccnc2)C[C@@H](/C=C/c2c(-c3ccc(F)cc3)nc(N(C)S(C)(=O)=O)nc2C(C)C)O1` (stereo partly shown) the “In vivo (plasma triglycerides)” value (plasma triglycerides) was “Reduction in plasma triglycerides”.
With `CC(C)OC1C[C@H](OCc2ccccc2)C[C@@H](/C=C/c2c(-c3ccc(F)cc3)nc(N(C)S(C)(=O)=O)nc2C(C)C)O1` (stereo partly shown) the “In vivo (plasma triglycerides)” value (plasma triglycerides) was “Reduction in plasma triglycerides”.
In the case of `CON=C(CC(=O)N1CCn2c(nnc2C(F)(F)F)C1)Cc1cc(F)c(F)cc1F` (mixture of isomers) [Compound 24b, 3-(Methoxyimino)-1-(3-(trifluoromethyl)-5,6-dihydro-[1,2,4]triazolo[4,3-a]pyrazin-7(8H)-yl)-4-(2,4,5-trifluorophenyl)butan-1-one], the “Activity as inhibitor of DPPIV (in words)” value (DPPIV) is reported as “did not exhibit significant activity”.
`CC1=C(/C=C/C(C)=C\C=C\C(C)=C\C(=O)O)C(C)(C)CCC1` [9 Cis Retanoic acid] was tested, and the “Max Response” value [1] was 87.826 and 98.978 and the EC50 [1] was 5.04 nM and 7.14 nM.
`COc1ccc(-c2ccc3cc(C(=O)O)ccc3c2)cc1C12CC3CC(CC(C3)C1)C2` [Adapalene] showed an Emax [1] of 147% and an EC50 [1] of 1.8 nM.
With `COC(Cn1c([N+](=O)[O-])cnc1C)OC` [Compound 3a, 1-(2,2-Dimethoxyethyl)-2-methyl-5-nitro-1H-imidazole] the MIC [2, 5] was 0.5 µg/mL (≈ 2.32 µM), the MIC ([2]; Clostridioides difficile, 48 h) was at most 0.25 µg/mL and the MIC ([2]; Clostridium perfringens, 48 h) was 1 µg/mL (≈ 4.65 µM). For the same molecule, the MIC [2, 6] was 0.5 µg/mL (≈ 2.32 µM).
`CON=CCn1c([N+](=O)[O-])cnc1C` [Compound 3b, 2-(2-Methyl-5-nitro-1H-imidazol-1-yl)acetaldehyde O-methyl oxime] was tested, and the MIC [2, 5] was 0.5 µg/mL (≈ 2.52 µM), the MIC ([2]; Clostridioides difficile, 48 h) was at most 0.25 µg/mL and the MIC ([2]; Clostridium perfringens, 48 h) was 1 µg/mL (≈ 5.05 µM). The MIC [2, 6] was 0.5 µg/mL (≈ 2.52 µM).
In the case of `COc1ccc(-c2ccc3cc(C=NO)ccc3c2)cc1C12CC3CC(CC(C3)C1)C2` [Compound 5a, 6-(3-(Adamantan-1-yl)-4-methoxyphenyl)-2-naphthaldehyde oxime], the Emax [1] is reported as 45.1% and the EC50 [1] is reported as 1270 nM.
`CON=Cc1ccc2cc(-c3ccc(OC)c(C45CC6CC(CC(C6)C4)C5)c3)ccc2c1` [Compound 5b, 6-(3-(Adamantan-1-yl)-4-methoxyphenyl)-2-naphthaldehyde O-methyl oxime] showed an Emax [1] of 81.1% and an EC50 [1] of 830 nM.
In the case of `N[C@@H](CCN1CCn2c(nnc2C(F)(F)F)C1)Cc1cc(F)c(F)cc1F` [Compound 24a, (R)-4-(3-(Trifluoromethyl)-5,6-dihydro-[1,2,4]triazolo[4,3-a]pyrazin-7(8H)-yl)-1-(2,4,5-trifluorophenyl)butan-2-amine], the “Activity as inhibitor of DPPIV (in words)” value (DPPIV) is reported as “showed an activity” and the IC50 (DPPIV; DPPIV, substrate Gly-Pro-AMC) is reported as 81.3 nM.
`COc1ccc(-c2ccc3cc(C=O)ccc3c2)cc1C12CC3CC(CC(C3)C1)C2` [Formula 135; Z is C(O)H] was tested, and the “Max Response” value [1] was 115.93 and the EC50 [1] was 142 nM.
`COc1ccc(-c2ccc3cc(CO)ccc3c2)cc1C12CC3CC(CC(C3)C1)C2` [Formula 135; Z is CH2OH] was tested, and the “Max Response” value [1] was 131.9 and the EC50 [1] was 199 nM.
For `Cc1ncc([N+](=O)[O-])n1CCO` [Metronidazole, metronidazole, reference compound], the MIC [2, 5] was 0.25 µg/mL (≈ 1.46 µM), the MIC ([2]; Clostridioides difficile, 48 h) was at most 0.25 µg/mL and the MIC ([2]; Clostridium perfringens, 48 h) was 0.5 µg/mL (≈ 2.92 µM). It also gave an MIC [2, 6] of 0.25 µg/mL (≈ 1.46 µM).
`CCOC(=O)C1=C[C@@H](OC(CC)CC)[C@H](NC(C)=O)[C@@H](N)C1` [Oseltamivir, oseltamivir, reference compound] gave an EC90 [3] of 1.3 nM.
`CC(=O)c1c(C)c2cnc(Nc3ccc(N4CCNCC4)cn3)nc2n(C2CCCC2)c1=O` [PD-0332991] was tested, and the “MEC (minimum effective concentration that significantly crosses vehicle threshold)” value (HepG2 cells) was 0.2 µM and the AC50 (HepG2 cells; Homo sapiens, HepG2, read-out: AC50 (concentration at which 50% maximum effect is observed)) was 1930 nM.
Work on `CC(=O)N[C@@H](Cc1c[nH]cn1)C(=O)N1CCC[C@H]1C(=O)N[C@@H](Cc1ccccc1)C(=O)N[C@H](C(=O)N[C@@H](CC(C)C)[C@@H](O)CC(=O)N[C@@H](CC(C)C)C(=O)N[C@@H](Cc1ccccc1)C(N)=O)C(C)C` [Positive control, Ac-HPFV-(Sta)-LF-NH2] (Ac-HPFV[Sta]LF-NH2) yielded an IC50 (renin) of 8.4 nM.
With `CC(C)c1nc(N(C)S(C)(=O)=O)nc(-c2ccc(F)cc2)c1/C=C/[C@@H](O)C[C@@H](O)CC(=O)O` [Rosuvastatin, reference compound] the “In vivo (plasma triglycerides)” value (plasma triglycerides; 25 mg/kg) was “Reduction in” and the “In vivo (plasma triglycerides)” value (plasma triglycerides; listed as rosuvastatin, 25 mg/kg) was “marked reduction in plasma triglycerides”.
With `NC(=O)CC[C@@H]1NC(=O)[C@H](Cc2ccccc2)NC(=O)[C@H](Cc2ccc(O)cc2)NC(=O)[C@@H](N)CSSC[C@@H](C(=O)N2CCC[C@H]2C(=O)N[C@@H](CCCN=C(N)N)C(=O)NCC(N)=O)NC(=O)[C@H](CC(N)=O)NC1=O` [Vasopressin] the “Max Response” value ([4]; AVPR2, Arrestin) was 101.99 and the EC50 ([4]; AVPR2, Arrestin) was 0.767 nM.
For `COCCCOc1cc(CC(CC2NC(=O)OC2CC(C(=O)NCC(C)(C)C#N)C(C)C)C(C)C)ccc1OC` (stereo not shown) [comparative example], the “Anti-influenza neuraminidase activity (in words)” value [3] was “No activity was observed”.
With “Angiotensin II (DRVYIHPF; Angiotensin-2; UniProt P01019 25-32, looked up)” the “Max Response” value ([4]; AGTR1, Arrestin) was 101.02 and the EC50 ([4]; AGTR1, Arrestin) was 10.2 nM.
